Assay [1] has as its target CRTH2 (Homo sapiens (Human), UniProt Q9Y5Y4). As to the kind of experiment: CRTH2 receptor binding inhibitory activity ([3H]-PGD2 displacement, membranes of CRTH2-expressing K562 cell). The following applies: [3H]-PGD2 displacement, membrane of CRTH2-expressing K562 cell, read-out: Ki. The procedure, abridged: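 Incubation ran 60 min at room temperature using 20 μg/well membrane from CRTH2-expressing K562 cells in pH 7.4 Tris/HCl (50 mM) with 10 mM MgCl2.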

The target of assay [2] is Human DP1 receptor (Homo sapiens (Human), UniProt Q13258). As to the kind of experiment: Human DP1 inhibitory activity in DP1-expressing cell (PGD2-induced cAMP). The assay is classed as cell-based. How it is done:
Compounds were categorized as AA (cAMP is less than 100 nM) and A (cAMP is more than 100 nM and less than 5000 nM) as shown in Table 99 and 100.

Where [3] appears, read: CRTH2 receptor binding, categorized AAAA/AAA.
Where [4] appears, read: category of cAMP IC50, human DP1 receptor expressing Jurkut cell.

Read-outs that look alike come from different tables or passages of the source.

CRTH2, sequence (Q9Y5Y4 whole entry): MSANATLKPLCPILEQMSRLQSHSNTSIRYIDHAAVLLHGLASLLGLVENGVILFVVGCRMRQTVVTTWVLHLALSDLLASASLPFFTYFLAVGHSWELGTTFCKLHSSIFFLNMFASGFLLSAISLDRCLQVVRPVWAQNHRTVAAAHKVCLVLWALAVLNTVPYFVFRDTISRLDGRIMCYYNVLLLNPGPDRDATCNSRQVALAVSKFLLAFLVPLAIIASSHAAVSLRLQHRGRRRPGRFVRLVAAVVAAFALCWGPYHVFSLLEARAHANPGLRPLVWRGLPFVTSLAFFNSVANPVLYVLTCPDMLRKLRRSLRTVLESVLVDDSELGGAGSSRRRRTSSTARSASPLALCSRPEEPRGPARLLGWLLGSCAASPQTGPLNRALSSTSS
Human DP1 receptor, sequence (Q13258 whole entry): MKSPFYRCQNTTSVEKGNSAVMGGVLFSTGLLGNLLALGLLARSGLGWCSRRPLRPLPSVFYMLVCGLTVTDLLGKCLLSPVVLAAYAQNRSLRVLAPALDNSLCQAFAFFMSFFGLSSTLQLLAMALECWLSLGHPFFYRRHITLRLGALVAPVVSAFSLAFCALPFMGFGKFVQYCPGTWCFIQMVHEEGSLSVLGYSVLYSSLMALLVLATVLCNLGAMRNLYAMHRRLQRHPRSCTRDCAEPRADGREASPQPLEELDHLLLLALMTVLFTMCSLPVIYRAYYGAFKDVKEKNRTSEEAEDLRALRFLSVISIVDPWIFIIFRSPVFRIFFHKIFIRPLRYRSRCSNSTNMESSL

One may read the Ki as a measure of affinity in units of concentration, obtained from inhibition or displacement. What is called IC50 is the concentration that gives 50% inhibition. Low values mean higher potency, high ones lower potency. Consider `CCOc1ccc(S(=O)(=O)N2C[C@H](C)[C@@H](n3nc(CC(=O)O)c4ccccc43)C2)cc1` [Compound I-198], for which, in assay [1] (setting [3]), the Ki is less than 100 nM. This compound also returned an IC50 in assay [2] (setting [4]) of 100 to 5000 nM.

As for `CC(C)Oc1ccc(S(=O)(=O)N2C[C@@H](C)[C@H](n3nc(CC(=O)O)c4ccccc43)C2)cc1` [Compound I-199], the Ki in assay [1] (setting [3]) was in the range of 100 to 5000 nM. In assay [2] (setting [4]), this compound had an IC50 of 100 to 5000 nM.

`CCOc1ccc(S(=O)(=O)N2C[C@@H](C)[C@@H](n3nc(CC(=O)O)c4ccccc43)C2)c(C#N)c1` [Compound I-200]: in assay [1] (setting [3]), the inhibitory constant (Ki) was less than 100 nM. The compound further gave an IC50 in assay [2] (setting [4]) of less than 100 nM.

In the case of `CCOc1ccc(S(=O)(=O)N2C[C@H](C)[C@@H](n3nc(CC(=O)O)c4ccccc43)C2)cn1` [Compound I-201], the Ki in assay [1] (setting [3]) is less than 100 nM. Further, the IC50 in assay [2] (setting [4]) lay in the range of 100 to 5000 nM.

Take `CCOc1ccc(S(=O)(=O)N2C[C@@H](C)[C@@H](n3nc(CC(=O)O)c4cc(C)ccc43)C2)cc1` [Compound I-202]: the inhibition constant (Ki) in assay [1] (setting [3]) lay in the range of 100 to 5000 nM. Also, in assay [2] (setting [4]), the IC50 is less than 100 nM.

With `Cc1ccc2c(c1)c(CC(=O)O)nn2[C@H]1CN(S(=O)(=O)c2ccc(OC(C)C)cc2)C[C@H]1C` [Compound I-203], in assay [1] (setting [3]), the Ki lay in the range of 100 to 5000 nM. For the same compound, the concentration for half-maximal inhibition (IC50) in assay [2] (setting [4]) was less than 100 nM.

As to `COc1ccc2c(CC(=O)O)nn([C@H]3CN(S(=O)(=O)c4ccc(OC(C)C)cc4)C[C@H]3C)c2c1` [Compound I-204], the Ki in assay [1] (setting [3]) is less than 100 nM. Further, in assay [2] (setting [4]), the IC50 was less than 100 nM.

For the compound `CCOc1ccc(S(=O)(=O)N2C[C@@H](C)[C@@H](n3nc(CC(=O)O)c4c(C)cccc43)C2)cn1` [Compound I-206], in assay [1] (setting [3]), the inhibition constant (Ki) lay in the range of 100 to 5000 nM. Further, the IC50 in assay [2] (setting [4]) is less than 100 nM.

`CCOc1ccc(S(=O)(=O)N2C[C@H](n3nc(CC(=O)O)c4ccccc43)C[C@@H]2CF)cc1` [Compound I-209]: the Ki in assay [1] (setting [3]) lay within 100 to 5000 nM. The compound further came in with an IC50 in assay [2] (setting [4]) of less than 100 nM.

With `CC(C)Oc1ccc(S(=O)(=O)N2CC[C@@H](n3nc(CC(=O)O)c4ccc(F)cc43)[C@@H]2C)cc1` [Compound I-210], the Ki in assay [1] (setting [3]) was less than 100 nM; in assay [1] it was 10 nM. The compound further showed a half-maximal inhibitory concentration (IC50) in assay [2] (setting [4]) of 100 to 5000 nM.

Consider `CCOc1ccc(S(=O)(=O)N2C[C@@H](C)[C@@H](n3nc(CC(=O)NS(C)(=O)=O)c4ccccc43)C2)cc1` [Compound I-212], for which the inhibition constant Ki in assay [1] (setting [3]) fell in the range of 100 to 5000 nM. For the same compound, in assay [2] (setting [4]), the IC50 was 100 to 5000 nM.

With `C[C@@H]1CN(S(=O)(=O)c2ccc(Oc3ccccc3)nc2)C[C@@H]1n1nc(CC(=O)O)c2ccccc21` [Compound I-213], the Ki in assay [1] (setting [3]) is 100 to 5000 nM. The same compound came in with an IC50 in assay [2] (setting [4]) of 100 to 5000 nM.

For `Cc1nc2ccc(S(=O)(=O)N3C[C@@H](C)[C@@H](n4nc(CC(=O)O)c5ccccc54)C3)cc2s1` [Compound I-214], the Ki in assay [1] (setting [3]) lay within 100 to 5000 nM. In assay [2] (setting [4]), the IC50 is less than 100 nM.

`C[C@@H]1CN(S(=O)(=O)c2ccc3occc3c2)C[C@@H]1n1nc(CC(=O)O)c2ccccc21` [Compound I-215]: the values for the inhibition constant (Ki) in assay [1] (setting [3]) and in assay [1] were less than 100 nM and 22 nM, respectively. In assay [2] (setting [4]), the IC50 lay in the range of 100 to 5000 nM.

As to `CCOc1ccc(S(=O)(=O)N2C[C@@H](C)[C@@H](n3nc(CC(=O)O)c4ccccc43)C2)c(Br)c1` [Compound I-216], in assay [1] (setting [3]), the Ki was less than 100 nM. The IC50 in assay [2] (setting [4]) is less than 100 nM.

Turning to `CCOc1ccc(S(=O)(=O)N2C[C@H](n3nc(CC(=O)O)c4ccc(F)cc43)[C@H](C)[C@H]2C#N)cc1` [Compound I-217], in assay [1] (setting [3]), the Ki is less than 100 nM. Further, the IC50 in assay [2] (setting [4]) is less than 100 nM.

As to `COc1ccc(S(=O)(=O)N2C[C@@H](C)[C@@H](n3nc(CC(=O)O)c4cc(Cl)ccc43)C2)cc1` [Compound I-218], the inhibition constant Ki in assay [1] (setting [3]) was 100 to 5000 nM. This compound also returned an IC50 in assay [2] (setting [4]) of less than 100 nM.

Take `CCOc1ccc(S(=O)(=O)N2C[C@@H](C)[C@@H](n3nc(CC(=O)O)c4ccc(N5CCOCC5)cc43)C2)cc1` [Compound I-219]: the Ki is 100 to 5000 nM in assay [1] (setting [3]) and 230 nM in assay [1]. Also, in assay [2] (setting [4]), the IC50 was 100 to 5000 nM.

`CCOc1ccc(S(=O)(=O)N2C[C@@H](C)[C@@H](n3nc(CC(=O)O)c4ccc(C5=CCCCC5)cc43)C2)cc1` [Compound I-220]: the values for the Ki in assay [1] (setting [3]) and in assay [1] were less than 100 nM and 8.1 nM, respectively. For the same compound, the IC50 is 32 nM in assay [2] (IC50 of PGD2 (60 nM)-induced cAMP increase, human DP1 receptor expressing Jurkut cell) and less than 100 nM in assay [2] (setting [4]).

Take `CCOc1ccc(S(=O)(=O)N2C[C@@H](C)[C@@H](n3nc(CC(=O)O)c4ccc(C5=CCCCC5)cc43)C2)cn1` [Compound I-221]: in assay [1] (setting [3]), the Ki was less than 100 nM. Further, the IC50 in assay [2] (setting [4]) is less than 100 nM.

Take `CCOc1ccc(S(=O)(=O)N2C[C@@H](C)[C@@H](n3nc(CC(=O)O)c4ccc(C5CCCCC5)cc43)C2)cc1` [Compound I-223]: the Ki in assay [1] (setting [3]) was less than 100 nM. The IC50 in assay [2] (setting [4]) was in the range of 100 to 5000 nM.

For `CCOc1ccc(S(=O)(=O)N2C[C@@H](C)[C@@H](n3nc(CC(=O)O)c4ccc(C5CCCCC5)cc43)C2)cn1` [Compound I-224], the Ki in assay [1] (setting [3]) is less than 100 nM. This compound came in with a half-inhibitory concentration (IC50) in assay [2] (setting [4]) of 100 to 5000 nM.

Turning to `CCOc1ccc(S(=O)(=O)N2C[C@@H](C)[C@@H](n3nc(CC(=O)O)c4ccc(OC)cc43)C2)cc1` [Compound I-225], in assay [1] (setting [3]), the Ki is less than 100 nM. In addition, the IC50 in assay [2] (setting [4]) is less than 100 nM.

Take `CCOc1ccc(S(=O)(=O)N2C[C@@H](C)[C@@H](n3nc(CC(=O)O)c4ccc(OC)cc43)C2)cn1` [Compound I-226]: the Ki in assay [1] (setting [3]) was less than 100 nM. Further, in assay [2] (setting [4]), the IC50 was in the range of 100 to 5000 nM.

On to `Cc1ccc2c(CC(=O)O)nn([C@H]3CN(S(=O)(=O)c4ccc(OC(C)C)nc4)C[C@H]3C)c2c1` [Compound I-229], for which, in assay [1] (setting [3]), the Ki is less than 100 nM. This compound also gave an IC50 in assay [2] (setting [4]) of less than 100 nM.

For `COc1ccc(S(=O)(=O)N2C[C@@H](C)[C@@H](n3nc(CC(=O)O)c4ccc(C)cc43)C2)cc1` [Compound I-230], the Ki in assay [1] (setting [3]) was less than 100 nM. The IC50 in assay [2] (setting [4]) is less than 100 nM.

As for `Cc1ccc2c(CC(=O)O)nn([C@H]3CN(S(=O)(=O)c4ccc(OC(F)(F)F)cc4)C[C@H]3C)c2c1` [Compound I-231], in assay [1] (setting [3]), the inhibitory constant (Ki) is less than 100 nM. The IC50 in assay [2] (setting [4]) is less than 100 nM.

In the case of `CCc1ccc(S(=O)(=O)N2C[C@@H](C)[C@@H](n3nc(CC(=O)O)c4ccc(C)cc43)C2)cc1` [Compound I-232], the Ki in assay [1] (setting [3]) is less than 100 nM. In assay [2] (setting [4]), this compound had an IC50 of less than 100 nM.

As to `COc1ccc(S(=O)(=O)N2C[C@@H](C)[C@@H](n3nc(CC(=O)O)c4ccc(F)cc43)C2)c(F)c1` [Compound I-233], the Ki in assay [1] (setting [3]) was less than 100 nM. The IC50 in assay [2] (setting [4]) is less than 100 nM.

Consider `COc1ccc(S(=O)(=O)N2C[C@@H](C)[C@@H](n3nc(CC(=O)O)c4ccc(F)cc43)C2)nc1` [Compound I-234], for which the Ki in assay [1] (setting [3]) is less than 100 nM. In assay [2] (setting [4]), this compound had an IC50 of 100 to 5000 nM.

Regarding `CCOc1ccc(S(=O)(=O)N2C[C@@H](C)[C@@H](n3nc(CC(=O)O)c4ccc(F)cc43)C2)nc1` [Compound I-235], in assay [1] (setting [3]), the Ki is less than 100 nM. In assay [2] (setting [4]), the IC50 was 100 to 5000 nM.

`COc1ccc(S(=O)(=O)N2C[C@@H](C)[C@@H](n3nc(CC(=O)O)c4ccc(C)cc43)C2)c(F)c1` [Compound I-236]: the Ki in assay [1] (setting [3]) is less than 100 nM. In assay [2] (setting [4]), this compound showed an IC50 of less than 100 nM.

As for `CCOc1ccc(S(=O)(=O)N2C[C@@H](C)[C@@H](n3nc(CC(=O)O)c4ccc(C)cc43)C2)c(F)c1` [Compound I-237], the Ki in assay [1] (setting [3]) is less than 100 nM. The compound further had an IC50 in assay [2] (setting [4]) of less than 100 nM.

In the case of `CC(C)C1CC1S(=O)(=O)N1C[C@@H](C)[C@@H](n2nc(CC(=O)O)c3ccccc32)C1` (stereo partly shown) [Compound I-238], in assay [1] (setting [3]), the Ki is less than 100 nM. In addition, the IC50 in assay [2] (setting [4]) was in the range of 100 to 5000 nM.

On to `CC(C)C1CC1S(=O)(=O)N1C[C@@H](C)[C@@H](n2nc(CC(=O)O)c3ccc(F)cc32)C1` (stereo partly shown) [Compound I-239], for which the Ki in assay [1] (setting [3]) was less than 100 nM; in assay [1] it was 4.4 nM. Besides, the IC50 in assay [2] (setting [4]) fell in the range of 100 to 5000 nM.
